Experimental data from ChEMBL document CHEMBL3046894, “Synthesis and Herbicidal Activity of Pyrimidinyl Salicylic and Thiosalicylic Acids” (J Pestic Sci, 1996).
Calls of active or inactive are those of the source. No cut-off for these calls is given here.

What was measured:
Gossypium hirsutum [1] = experiment: Post-emergence phytotoxicity against Gossypium hirsutum (cotton) assessed as mortality per 10 acre; format: organism-based; settings: in vivo
Echinochloa crus-galli [2] = experiment: Pre-emergence herbicidal activity against Echinochloa crus-galli (barnyard grass) assessed as mortality at 6.3 g a.i/10 a; format: functional; settings: for mortality at 63 g/ha: Echinochloa crus-galli, pre-emergence
Abutilon theophrasti [3] = experiment: Post-emergence herbicidal activity against Abutilon theophrasti (velvetleaf) assessed as mortality at 1.6 g a.i/10 a applied 11 days after germination as foliar spray; format: functional; settings: 264 h
Abutilon theophrasti [4] = experiment: Post-emergence herbicidal activity against Abutilon theophrasti (velvetleaf) assessed as mortality at 6.3 g a.i/10 a applied 11 days after germination as foliar spray; format: functional; settings: 264 h
Gossypium hirsutum [5] = experiment: (§1) Pre-emergence phytotoxicity against Gossypium hirsutum (cotton) assessed as mortality at 6.3 g a.i/10 a; format: organism-based; settings: in vivo, other
Gossypium hirsutum [6] = experiment: Pre-emergence phytotoxicity against Gossypium hirsutum (cotton) assessed as mortality at 1.6 g a.i/10 a; format: organism-based; settings: in vivo, other
Glycine max [7] = experiment: (§2) Pre-emergence phytotoxicity against Glycine max (soybean) assessed as mortality at 1.6 g a.i/10 a; format: organism-based; settings: in vivo, other
[8] = (§3) Pre-emergence phytotoxicity against Glycine max (soybean) assessed as mortality at 6.3 g a.i/10 a; format: organism-based; settings: in vivo, 6.3 g a.i/10 a
[9] = (§4) Pre-emergence phytotoxicity against Zea mays (maize) assessed as mortality at 1.6 g a.i/10 a; format: organism-based; settings: in vivo, 1.6 g a.i/10 a, read-out: mortality
Gossypium hirsutum [10] = experiment: Post-emergence phytotoxicity against Gossypium hirsutum (cotton) assessed as mortality at 1.6 g a.i/10 a applied 11 days after germination as foliar spray; format: organism-based; settings: in vivo, other, 264 h
Gossypium hirsutum [11] = experiment: Post-emergence phytotoxicity against Gossypium hirsutum (cotton) assessed as mortality at 6.3 g a.i/10 a applied 11 days after germination as foliar spray; format: organism-based; settings: in vivo, other, 264 h
[12] = (§5) Post-emergence phytotoxicity against Glycine max (soybean) assessed as mortality at 1.6 g a.i/10 a applied 11 days after germination as foliar spray; format: organism-based; settings: in vivo, 1.6 g a.i/10 a
[13] = (§6) Post-emergence phytotoxicity against Zea mays (maize) assessed as mortality at 1.6 g a.i/10 a applied 11 days after germination as foliar spray; format: organism-based; settings: in vivo, 1.6 g a.i/10 a
Echinochloa crus-galli [14] = experiment: Post-emergence herbicidal activity against Echinochloa crus-galli (barnyard grass) assessed as mortality at 1.6 g a.i/10 a applied 11 days after germination as foliar spray; format: functional; settings: 264 h
Echinochloa crus-galli [15] = experiment: Post-emergence herbicidal activity against Echinochloa crus-galli (barnyard grass) assessed as mortality at 6.3 g a.i/10 a applied 11 days after germination as foliar spray; format: functional; settings: 264 h
Cyperus iria [16] = experiment: Pre-emergence herbicidal activity against Cyperus iria assessed as growth inhibition at 25 g a.i/10 a; format: functional, organism-based
Chenopodium album [17] = experiment: Pre-emergence herbicidal activity against Chenopodium album assessed as growth inhibition at 25 g a.i/10 a; format: functional, organism-based
Amaranthus retroflexus [18] = experiment: Pre-emergence herbicidal activity against Amaranthus retroflexus assessed as growth inhibition at 25 g a.i/10 a; format: functional, organism-based
Persicaria nodosa [19] = experiment: Pre-emergence herbicidal activity against Persicaria nodosa assessed as growth inhibition at 25 g a.i/10 a; format: functional, organism-based
Digitaria sanguinalis [20] = experiment: Pre-emergence herbicidal activity against Digitaria sanguinalis (hairy crabgrass) assessed as growth inhibition at 25 g a.i/10 a; format: functional, organism-based
Echinochloa crus-galli [21] = experiment: Pre-emergence herbicidal activity against Echinochloa crus-galli (barnyard grass) assessed as growth inhibition at 25 g a.i/10 a; format: functional, organism-based
Cyperus iria [22] = experiment: Post-emergence herbicidal activity against Cyperus iria assessed as growth inhibition at 25 g a.i/10 a applied 11 days after germination as foliar spray; format: functional, organism-based
Chenopodium album [23] = experiment: Post-emergence herbicidal activity against Chenopodium album assessed as growth inhibition at 25 g a.i/10 a applied 11 days after germination as foliar spray; format: functional, organism-based
Amaranthus retroflexus [24] = experiment: Post-emergence herbicidal activity against Amaranthus retroflexus assessed as growth inhibition at 25 g a.i/10 a applied 11 days after germination as foliar spray; format: functional, organism-based
Persicaria nodosa [25] = experiment: Post-emergence herbicidal activity against Persicaria nodosa assessed as growth inhibition at 25 g a.i/10 a applied 11 days after germination as foliar spray; format: functional, organism-based
Digitaria sanguinalis [26] = experiment: Post-emergence herbicidal activity against Digitaria sanguinalis (hairy crabgrass) assessed as growth inhibition at 25 g a.i/10 a applied 11 days after germination as foliar spray; format: functional, organism-based
Echinochloa crus-galli [27] = experiment: Post-emergence herbicidal activity against Echinochloa crus-galli (barnyard grass) assessed as growth inhibition at 25 g a.i/10 a applied 11 days after germination as foliar spray; format: functional, organism-based
Ipomoea lacunosa [28] = experiment: Pre-emergence herbicidal activity against Ipomoea lacunosa assessed as mortality per 10 acre; format: functional
Persicaria nodosa [29] = experiment: Pre-emergence herbicidal activity against Persicaria nodosa assessed as mortality per 10 acre; format: functional
Amaranthus retroflexus [30] = experiment: Pre-emergence herbicidal activity against Amaranthus retroflexus assessed as mortality per 10 acre; format: functional
Echinochloa crus-galli [31] = experiment: Pre-emergence herbicidal activity against Echinochloa crus-galli (barnyard grass) assessed as mortality per 10 acre; format: functional
Gossypium hirsutum [32] = experiment: Pre-emergence phytotoxicity against Gossypium hirsutum (cotton) assessed as mortality per 10 acre; format: organism-based; settings: in vivo
Xanthium strumarium [33] = experiment: Post-emergence herbicidal activity against Xanthium strumarium (cocklebur) assessed as mortality per 10 acre; format: functional
Ipomoea lacunosa [34] = experiment: Post-emergence herbicidal activity against Ipomoea lacunosa assessed as mortality per 10 acre; format: functional
Persicaria nodosa [35] = experiment: Post-emergence herbicidal activity against Persicaria nodosa assessed as mortality per 10 acre; format: functional
Amaranthus retroflexus [36] = experiment: Post-emergence herbicidal activity against Amaranthus retroflexus assessed as mortality per 10 acre; format: functional
Echinochloa crus-galli [37] = experiment: Post-emergence herbicidal activity against Echinochloa crus-galli (barnyard grass) assessed as mortality per 10 acre; format: functional
Xanthium strumarium [38] = experiment: Pre-emergence herbicidal activity against Xanthium strumarium (cocklebur) assessed as mortality per 10 acre; format: functional
Abutilon theophrasti [39] = experiment: Pre-emergence herbicidal activity against Abutilon theophrasti (velvetleaf) assessed as mortality at 6.3 g a.i/10 a; format: functional
[40] = as §1; format: organism-based; settings: in vivo, 6.3 g a.i/10 a, read-out: Activity
[41] = as §2; format: organism-based; settings: in vivo, 1.6 g a.i/10 a, read-out: Activity
Zea mays [42] = experiment: as §4; format: organism-based; settings: in vivo, other
Zea mays [43] = experiment: Pre-emergence phytotoxicity against Zea mays (maize) assessed as mortality at 6.3 g a.i/10 a; format: organism-based; settings: in vivo, other
Glycine max [44] = experiment: Post-emergence phytotoxicity against Glycine max (soybean) assessed as mortality at 6.3 g a.i/10 a applied 11 days after germination as foliar spray; format: organism-based; settings: in vivo, other, 264 h
Glycine max [45] = experiment: as §5; format: organism-based; settings: in vivo, other, 264 h
Zea mays [46] = experiment: as §6; format: organism-based; settings: in vivo, other, 264 h
Ipomoea lacunosa [47] = experiment: Pre-emergence herbicidal activity against Ipomoea lacunosa assessed as mortality at 1.6 g a.i/10 a; format: functional
Ipomoea lacunosa [48] = experiment: Pre-emergence herbicidal activity against Ipomoea lacunosa assessed as mortality at 6.3 g a.i/10 a; format: functional
Abutilon theophrasti [49] = experiment: Pre-emergence herbicidal activity against Abutilon theophrasti (velvetleaf) assessed as mortality at 1.6 g a.i/10 a; format: functional
Ipomoea lacunosa [50] = experiment: Post-emergence herbicidal activity against Ipomoea lacunosa assessed as mortality at 1.6 g a.i/10 a applied 11 days after germination as foliar spray; format: functional; settings: 264 h
Glycine max [51] = experiment: as §3; format: organism-based; settings: in vivo, other
Xanthium strumarium [52] = experiment: Post-emergence herbicidal activity against Xanthium strumarium (cocklebur) assessed as mortality at 1.6 g a.i/10 a applied 11 days after germination as foliar spray; format: functional; settings: 264 h
Xanthium strumarium [53] = experiment: Pre-emergence herbicidal activity against Xanthium strumarium (cocklebur) assessed as mortality at 1.6 g a.i/10 a; format: functional; settings: Xanthium strumarium, pre-emergence
[54] = Ipomoea lacunosa, pre-emergence

COc1cc(OC)nc(Oc2cccc(Cl)c2C(=O)O)n1
ED20 (Gossypium hirsutum [1]): 0.2 gAi
mortality at 63 g/ha (Echinochloa crus-galli [2]): > 90%
mortality at 16 g/ha (Abutilon theophrasti [3]): > 90%
mortality at 63 g/ha (Abutilon theophrasti [4]): > 90%
Activity (Gossypium hirsutum [5]): Non-toxic
Activity (Gossypium hirsutum [6]): Non-toxic
Activity (Glycine max [7]): Toxic
mortality ([8]; read-out: mortality): > 90%
mortality [9]: > 90%
Activity (Gossypium hirsutum [10]): Toxic
Activity (Gossypium hirsutum [11]): Toxic
mortality at 264 h [12]: > 90%
mortality at 264 h [13]: > 90%
mortality at 16 g/ha (Echinochloa crus-galli [14]): > 90%
mortality at 63 g/ha (Echinochloa crus-galli [15]): > 90%
growth inhibition (GI) (Cyperus iria [16]): Active
growth inhibition (GI) (Chenopodium album [17]): Active
growth inhibition (GI) (Amaranthus retroflexus [18]): Active
growth inhibition (GI) (Persicaria nodosa [19]): Active
growth inhibition (GI) (Digitaria sanguinalis [20]): Active
growth inhibition (GI) (Echinochloa crus-galli [21]): Active
growth inhibition (GI) (Cyperus iria [22]): Active
growth inhibition (GI) (Chenopodium album [23]): Active
growth inhibition (GI) (Amaranthus retroflexus [24]): Active
growth inhibition (GI) (Persicaria nodosa [25]): Active
growth inhibition (GI) (Digitaria sanguinalis [26]): Active
growth inhibition (GI) (Echinochloa crus-galli [27]): Active
ED90 (Ipomoea lacunosa [28]): 25 gAi
ED90 (Persicaria nodosa [29]): 0.4 gAi
ED90 (Amaranthus retroflexus [30]): 0.4 gAi
ED90 (Echinochloa crus-galli [31]): inactive
ED20 (Gossypium hirsutum [32]): Toxic
ED90 (Xanthium strumarium [33]): 1.5 gAi
ED90 (Ipomoea lacunosa [34]): 0.8 gAi
ED90 (Persicaria nodosa [35]): 0.2 gAi
ED90 (Amaranthus retroflexus [36]): 0.2 gAi
ED90 (Echinochloa crus-galli [37]): 1.5 gAi
ED90 (Xanthium strumarium [38]): 25 gAi
mortality at 63 g/ha (Abutilon theophrasti [39]; Abutilon theophrasti, pre-emergence): > 90%

CCOc1cccc(Sc2nc(OC)cc(OC)n2)c1C(=O)O
Activity (Echinochloa crus-galli [2]): >90%
mortality at 16 g/ha (Abutilon theophrasti [3]): > 90%
mortality at 63 g/ha (Abutilon theophrasti [4]): > 90%
mortality [40]: < 50%
Activity (Gossypium hirsutum [6]): < 50%
mortality [41]: < 50%
mortality ([8]; read-out: Activity): < 50%
Activity (Zea mays [42]): Non-toxic
Activity (Zea mays [43]): Toxic
Activity (Gossypium hirsutum [10]): Toxic
Activity (Gossypium hirsutum [11]): Toxic
Activity (Glycine max [44]): Toxic
Activity (Glycine max [45]): Toxic
Activity (Zea mays [46]): Toxic
mortality at 16 g/ha (Echinochloa crus-galli [14]): < 5%
Activity (Ipomoea lacunosa [47]): <50%
Activity (Ipomoea lacunosa [48]): <50%
Activity (Abutilon theophrasti [49]): <50%
Activity (Abutilon theophrasti [39]): <50%

COc1cc(OC)nc(Oc2cccc(C)c2C(=O)O)n1
ED20 (Gossypium hirsutum [1]): 0.4 gAi
mortality at 63 g/ha (Echinochloa crus-galli [2]): > 90%
mortality at 16 g/ha (Ipomoea lacunosa [50]): < 5%
mortality at 63 g/ha (Abutilon theophrasti [4]): > 90%
Activity (Gossypium hirsutum [5]): Non-toxic
Activity (Glycine max [7]): Toxic
Activity (Glycine max [51]): Toxic
mortality [9]: > 90%
Activity (Gossypium hirsutum [10]): Non-toxic
Activity (Gossypium hirsutum [11]): Non-toxic
mortality at 264 h [12]: > 90%
mortality at 264 h [13]: > 90%
mortality at 16 g/ha (Xanthium strumarium [52]): < 5%
mortality at 63 g/ha (Echinochloa crus-galli [15]): > 90%
growth inhibition (GI) (Cyperus iria [16]): Active
growth inhibition (GI) (Chenopodium album [17]): Active
growth inhibition (GI) (Amaranthus retroflexus [18]): Active
growth inhibition (GI) (Persicaria nodosa [19]): Active
growth inhibition (GI) (Digitaria sanguinalis [20]): Active
growth inhibition (GI) (Echinochloa crus-galli [21]): Active
growth inhibition (GI) (Cyperus iria [22]): Active
growth inhibition (GI) (Chenopodium album [23]): Active
growth inhibition (GI) (Amaranthus retroflexus [24]): Active
growth inhibition (GI) (Persicaria nodosa [25]): Active
growth inhibition (GI) (Digitaria sanguinalis [26]): Active
growth inhibition (GI) (Echinochloa crus-galli [27]): Active
ED90 (Ipomoea lacunosa [28]): >100 gAi
ED90 (Persicaria nodosa [29]): Active
ED90 (Amaranthus retroflexus [30]): inactive
ED90 (Echinochloa crus-galli [31]): Active
ED20 (Gossypium hirsutum [32]): Toxic
ED90 (Xanthium strumarium [33]): 25 gAi
ED90 (Ipomoea lacunosa [34]): 100 gAi
ED90 (Persicaria nodosa [35]): 0.4 gAi
ED90 (Amaranthus retroflexus [36]): 0.2 gAi
ED90 (Echinochloa crus-galli [37]): inactive
mortality at 16 g/ha (Xanthium strumarium [53]): < 5%
mortality at 16 g/ha (Ipomoea lacunosa [47]; [54]): < 5%
mortality at 63 g/ha (Ipomoea lacunosa [48]; [54]): < 5%
ED90 (Xanthium strumarium [38]): >100 gAi
